Experimental data published in patent publication US8080529B2, “Macrolides with anti-inflammatory activity” (Glaxo Group Limited, priority 2005, dated 2011).
Like-named read-outs stand apart in the source and are kept apart here.

Legend:
TNF-α [1] = assay: Inhibition of TNF-α production by stimulated human peripheral blood leukocytes in vitro; format: cell-based; conditions: Homo sapiens, Leukocyte, read-out: Percentage of inhibition of TNF-α production
Summary of the method: (§1)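 Cytokines in supernatants measured by sandwich ELISA after overnight stimulation (2 μg/mL LPS, 1 μg/mL PMA or 120 μg/mL zymosan) of healthy-donor leukocytes pretreated 2 h with 10 or 50 μM compound. Percent inhibition calculated relative to stimulated cells lacking compound.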

IL-1α = assay: Inhibition of IL-1 production by stimulated human peripheral blood leukocytes in vitro; format: cell-based; conditions: Homo sapiens, Leukocyte, read-out: Percentage of inhibition of IL-1α production
IL-6 = assay: Inhibition of IL-6 production by stimulated human peripheral blood leukocytes in vitro; format: cell-based; conditions: Homo sapiens, Leukocyte, read-out: Percentage of inhibition of IL-6 production
Summary of the method: as §1

IL-8 = assay: Inhibition of IL-8 production by stimulated human peripheral blood leukocytes in vitro; format: cell-based; conditions: Homo sapiens, Leukocyte, read-out: Percentage of inhibition of IL-8 production
Summary of the method: as §1

[2] = tested on: human peripheral blood mononuclear cells (PBMC); assay: Effects on human T-cell proliferation in vitro (3H-thymidine incorporation); format: cell-based; conditions: Homo sapiens, PBMC, read-out: Percentage of inhibition of proliferation of stimulated PBMC
Summary of the method: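 Proliferation of human peripheral blood mononuclear cells (PBMC) was assessed in the presence of test compounds. During the final 18 h of culture each well received 1 μCi of ^3H-thymidine. Cells were then collected onto a 96-well filter with a multiple cell harvester, and ^3H-thymidine incorporation was counted on a TopCount NXT to give percentage inhibition of proliferation.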

Hep G2 = assay: Cytotoxicity assay (MTT), Hep G2 cell line; format: cell-based; conditions: 24 h
Summary of the method: (§2)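 Hep G2 and A549 cells were cultured 24 h at 37° C in RPM medium with test compounds at 50 μM and 12.5 μM. MTT was added for 0.5-2 h and formazan read at 490 nm. Growth value calculated as OD490 treated/OD490 nontreated ×100.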

A549 = assay: Cytotoxicity assay (MTT), A549 cell line; format: cell-based; conditions: 24 h
Summary of the method: as §2

TNF-α [3] = assay: Lipopolysaccharide induced TNF-α production in Balb/cJ mice; format: in vivo; conditions: Mus musculus, ip, 1.5 h; 10 mg/kg intraperitoneally, 30 min before LPS; 90 min after LPS; read-out: % inhibition of TNF-α production (plasma)

SMILES	inhibition at 10 µM (TNF-α [1]; LPS-stimulated PBL) [%]	inhibition at 10 µM (TNF-α [1]; PMA-stimulated PBL) [%]	inhibition at 10 µM (TNF-α [1]; zymosan-stimulated PBL) [%]	inhibition at 50 µM (TNF-α [1]; LPS-stimulated PBL) [%]	inhibition at 50 µM (TNF-α [1]; PMA-stimulated PBL) [%]	inhibition at 50 µM (TNF-α [1]; zymosan-stimulated PBL) [%]	inhibition at 10 µM (IL-1α; LPS-stimulated PBL) [%]	inhibition at 10 µM (IL-1α; PMA-stimulated PBL) [%]	inhibition at 10 µM (IL-1α; zymosan-stimulated PBL) [%]	inhibition at 50 µM (IL-1α; LPS-stimulated PBL) [%]	inhibition at 50 µM (IL-1α; PMA-stimulated PBL) [%]	inhibition at 50 µM (IL-1α; zymosan-stimulated PBL) [%]	inhibition at 10 µM (IL-6; LPS-stimulated PBL) [%]	inhibition at 10 µM (IL-6; PMA-stimulated PBL) [%]	inhibition at 10 µM (IL-6; zymosan-stimulated PBL) [%]	inhibition at 50 µM (IL-6; LPS-stimulated PBL) [%]	inhibition at 50 µM (IL-6; PMA-stimulated PBL) [%]	inhibition at 50 µM (IL-6; zymosan-stimulated PBL) [%]	inhibition at 10 µM (IL-8; LPS-stimulated PBL) [%]	inhibition at 10 µM (IL-8; PMA-stimulated PBL) [%]	other results
CC[C@H]1OC(=O)[C@H](C)[C@@H](O[C@H]2C[C@@](C)(OC)[C@@H](OC(=O)CCN(C)CCO)[C@H](C)O2)[C@H](C)[C@@H](O[C@@H]2O[C@H](C)C[C@H](N(C)C)[C@H]2O)[C@](C)(OC)C[C@@H](C)C(=O)N[C@H](C)[C@@H](O)[C@]1(C)O [Example 15]	61	82	93	99	96	100	80	80	96	98	96	99	39	50	76	93	95	96	38	0	inhibition at 10 µM (IL-8; zymosan-stimulated PBL): 42%; inhibition at 50 µM (IL-8; LPS-stimulated PBL): 94%; inhibition at 50 µM (IL-8; PMA-stimulated PBL): 95%; inhibition at 50 µM (IL-8; zymosan-stimulated PBL): 91%; inhibition at 10 µM ([2]; PHA): 68%; inhibition at 50 µM ([2]; PHA): 99%; inhibition at 10 µM ([2]; PMA + iono.): 53%; inhibition at 50 µM ([2]; PMA + iono.): 98%; Percentage of inhibition of cell growth (Hep G2; 12.5 μM): 3%; Percentage of inhibition of cell growth (Hep G2; 50 μM): 0%; Percentage of inhibition of cell growth (A549; 12.5 μM): 0%; Percentage of inhibition of cell growth (A549; 50 μM): 5%; inhibition in vivo at 10 mg/kg (TNF-α [3]): 100%
CC[C@H]1OC(=O)[C@H](C)[C@@H](O[C@H]2C[C@@](C)(OC)[C@@H](OC(=O)CCN3CCN(CCN(C)C)CC3)[C@H](C)O2)[C@H](C)[C@@H](O[C@@H]2O[C@H](C)C[C@H](N(C)C)[C@H]2O)[C@](C)(OC)C[C@@H](C)C(=O)N[C@H](C)[C@@H](O)[C@]1(C)O [Example 17]	13	46	30	21	67	46	25	55	58	44	75	90	9	37	33	14	55	60	4	21	inhibition at 10 µM (IL-8; zymosan-stimulated PBL): 20%; inhibition at 50 µM (IL-8; LPS-stimulated PBL): 6%; inhibition at 50 µM (IL-8; PMA-stimulated PBL): 13%; inhibition at 50 µM (IL-8; zymosan-stimulated PBL): 13%; inhibition at 10 µM ([2]; PHA): 0%; inhibition at 50 µM ([2]; PHA): 70%; inhibition at 10 µM ([2]; PMA + iono.): 3%; inhibition at 50 µM ([2]; PMA + iono.): 49%; Percentage of inhibition of cell growth (Hep G2; 12.5 μM): 5%; Percentage of inhibition of cell growth (Hep G2; 50 μM): 2%; Percentage of inhibition of cell growth (A549; 12.5 μM): 5%; Percentage of inhibition of cell growth (A549; 50 μM): 2%; inhibition in vivo at 10 mg/kg (TNF-α [3]): 84%
